From patent US10329352B2, “Pyrrolobenzodiazepines and targeted conjugates” (priority 2011, dated 2019)

Columns and labels:
Experiment in all cases: Free drug in vitro cytotoxicity (resazurin)
Type in all cases: cell-based
786-O = system: 786-O
Method: (§1) Cells as detailed below were collected and plated in 96 well black-sided plates at a density of 10,000 cells/well in 150 μL of medium. […] Resazurin (0.25 mM, 50 μL, Sigma, St. Louis, Mo.) in medium was added and incubation was continued for 4 hours. The plates were read on a Fusion HT microplate reader (Packard, Meriden, Conn.) using an excitation wavelength of 525 nm and an emission wavelength of 590 nm. Data from all assays were reduced using GraphPad Prism Version 4 for Windows (GraphPad Software, San Diego, Calif.). The IC50 concentrations compared to untreated control cells were determined using a 4 parameter curve fits.

HEL9217 = system: HEL9217
Method: as §1

Caki-1 = system: Caki-1
Method: as §1

HL60 = system: HL60
Method: as §1

## COC(=O)c1ccc(C2=CN3C(=O)c4cc(OC)c(OCCCCCOc5cc6c(cc5OC)C(=O)N5C=C(c7ccc(N)cc7)C[C@H]5C=N6)cc4N=C[C@@H]3C2)cc1 [compound 4, (S)-2-(4-aminophenyl)-7-methoxy-8-(5-((S)-7-methoxy-2-(4-methyloxycarbonylphenyl)-5-oxo-5,11a-dihydro-1H-pyrrolo[2,1-c][1,4]benzodiazepin-8-yloxy)pentyloxy)-1H-pyrrolo[2,1-c][1,4]benzodiazepine-5(11aH)-one]
786-O; Homo sapiens, 786-0, following 48 hours treatment
  IC50: 0.05 nM
HEL9217; Homo sapiens, HEL 92.1.7, following 48 hours treatment
  IC50: 0.008 nM
Caki-1; Homo sapiens, CAKI-1, following 48 hours treatment
  IC50: 0.02 nM
HL60; Homo sapiens, HL-60, following 48 hours treatment
  IC50: 0.008 nM

## COc1cc2c(cc1OCCCOc1cc3c(cc1OC)C(=O)N1C=C(c4ccc(O)cc4)C[C@H]1C=N3)N=C[C@@H]1CC(c3ccc(N)cc3)=CN1C2=O [compound 14]
786-O; following 48 hours treatment
  IC50: 0.2 nM
HEL9217; following 48 hours treatment
  IC50: 0.05 nM
Caki-1; following 48 hours treatment
  IC50: 0.4 nM
HL60; following 48 hours treatment
  IC50: 0.03 nM
